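1) Cells in 96-well plates. 2) Compound, 48 h, 5 concentrations. 3) Linear interpolation between surrounding doses. 4) Unreached endpoint = highest concentration. TGI: concentration producing complete growth inhibition.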
Columns and labels:
Experiment in all cases: growth of human tumour cells (NCI), 48 h
COLO 205 colon = tested on: COLO 205 colon
HCT-15 colon = tested on: HCT-15 colon
SK-MEL-28 melanoma = tested on: SK-MEL-28 melanoma
SF-268 CNS = tested on: SF-268 CNS
HCC-2998 colon = tested on: HCC-2998 colon
SK-OV-3 ovarian = tested on: SK-OV-3 ovarian
OVCAR-8 ovarian = tested on: OVCAR-8 ovarian
SK-MEL-5 melanoma = tested on: SK-MEL-5 melanoma
IGROV1 ovarian = tested on: IGROV1 ovarian
CAKI-1 renal = tested on: CAKI-1 renal
SF-295 CNS = tested on: SF-295 CNS
RXF 393 renal = tested on: RXF 393 renal
SW-620 colon = tested on: SW-620 colon
HL-60(TB) leukemia = tested on: HL-60(TB) leukemia
MALME-3M melanoma = tested on: MALME-3M melanoma
KM12 colon = tested on: KM12 colon
MOLT-4 leukemia = tested on: MOLT-4 leukemia
SNB-75 CNS = tested on: SNB-75 CNS
SK-MEL-2 melanoma = tested on: SK-MEL-2 melanoma
SF-539 CNS = tested on: SF-539 CNS

Row | SMILES | TGI (COLO 205 colon) | TGI (HCT-15 colon) | TGI (SK-MEL-28 melanoma) | TGI (SF-268 CNS) | TGI (HCC-2998 colon) | TGI (SK-OV-3 ovarian) | TGI (OVCAR-8 ovarian) | TGI (SK-MEL-5 melanoma) | TGI (IGROV1 ovarian) | TGI (CAKI-1 renal) | TGI (SF-295 CNS) | TGI (RXF 393 renal) | TGI (SW-620 colon) | TGI (HL-60(TB) leukemia) | TGI (MALME-3M melanoma) | TGI (KM12 colon) | TGI (MOLT-4 leukemia) | TGI (SNB-75 CNS) | TGI (SK-MEL-2 melanoma) | TGI (SF-539 CNS)
1 | COC(=O)CN(C)P(=O)(N1CC1)N1CC1 | > 100 µM | > 100 µM | > 100 µM | > 100 µM | > 100 µM | > 100 µM | > 100 µM | > 100 µM | > 100 µM | > 100 µM | > 100 µM | > 100 µM | > 100 µM | > 100 µM | > 100 µM | > 100 µM | > 100 µM | > 100 µM | > 100 µM | > 100 µM
2 | COc1cc2c3c(c4cc(OC)c(OC)cc4c2cc1OC)C(=O)C1CCC(=O)N1C3 (stereo not given) | > 100 µM | > 100 µM | > 100 µM | > 100 µM | > 100 µM | 61.1 µM | > 100 µM | > 100 µM | 88.5 µM | 38.9 µM | > 100 µM | 89.6 µM | > 100 µM | > 100 µM | 83 µM | > 100 µM | 37.5 µM | 32.2 µM | > 100 µM | 39.8 µM
3 | Cc1cccc(C(C)C)c1NC(=O)CC1Sc2ccccc2NC1=O (stereo not given) | > 100 µM | > 100 µM | > 100 µM | > 100 µM | > 100 µM | > 100 µM | > 100 µM | > 100 µM | > 100 µM | > 100 µM | > 100 µM | > 100 µM | > 100 µM | > 100 µM | 94.2 µM | > 100 µM | > 100 µM | > 100 µM | > 100 µM | > 100 µM
